Assay results reported in PMC5218480 (PLoS ONE, 2017).

Test system: MV-4-11 cells
Experiment: Gene expression microarray analysis (Affymetrix PrimeView) and GSEA
Format: cell-based, human
Set-up: RFU PODN (11730768_x_at) / Fold change /veh PODN (11730768_x_at) / RFU LINC00158 (11744669_a_at) / Fold change /veh LINC00158 (11744669_a_at) / RFU DUSP10 (11751237_a_at) / Fold change /veh DUSP10 (11751237_a_at) / RFU ID3 (11757404_x_at) / Fold change /veh ID3 (11757404_x_at) / RFU PLEKHG5 (11737974_s_at) / Fold change /veh PLEKHG5 (11737974_s_at) / RFU LRRC4B (11730491_at) / Fold change /veh LRRC4B (11730491_at) / RFU GIMAP4 (11747438_a_at) / Fold change /veh GIMAP4 (11747438_a_at) / RFU KRT8 (11758183_x_at) / Fold change /veh KRT8 (11758183_x_at) / RFU CNN1 (11734310_a_at) / Fold change /veh CNN1 (11734310_a_at) / RFU VPS37D (11726825_at) / Fold change /veh VPS37D (11726825_at) / RFU C10orf10 (11716522_x_at) / Fold change /veh C10orf10 (11716522_x_at) / RFU KIR2DL2 /// KIR2DL4 /// KIR2DL5A /// KIR2DL5B /// KIR2DS1 /// KIR2DS2 /// KIR2DS3 /// KIR2DS4 /// KIR3DL3 /// KIR3DL3 /// KIR3DS1 (11738374_at) / Fold change /veh KIR2DL2 /// KIR2DL4 /// KIR2DL5A /// KIR2DL5B /// KIR2DS1 /// KIR2DS2 /// KIR2DS3 /// KIR2DS4 /// KIR3DL3 /// KIR3DL3 /// KIR3DS1 (11738374_at) / RFU C1QL1 (11718748_at) / Fold change /veh C1QL1 (11718748_at) / RFU TMPRSS4 (11747572_a_at) / Fold change /veh TMPRSS4 (11747572_a_at) / RFU HAMP (11756126_x_at) / Fold change /veh HAMP (11756126_x_at) / RFU RNFT2 (11725882_a_at) / Fold change /veh RNFT2 (11725882_a_at) / RFU NR4A2 (11747474_a_at) / Fold change /veh NR4A2 (11747474_a_at) / RFU ABCC12 (11746883_a_at) / Fold change /veh ABCC12 (11746883_a_at) / RFU TMEM136 (11760407_x_at) / Fold change /veh TMEM136 (11760407_x_at) / RFU CLDN22 /// WWC2 (11732394_at) / Fold change /veh CLDN22 /// WWC2 (11732394_at) / RFU HLA-DPB1 (11760878_x_at) / Fold change /veh HLA-DPB1 (11760878_x_at) / RFU SPINT1 (11716480_a_at) / Fold change /veh SPINT1 (11716480_a_at) / RFU GAP43 (11754022_s_at) / Fold change /veh GAP43 (11754022_s_at) / RFU A4GNT (11735810_at) / Fold change /veh A4GNT (11735810_at) / RFU PRB3 (11715151_x_at) / Fold change /veh PRB3 (11715151_x_at) / RFU TUBB4B (11761932_at) / Fold change /veh TUBB4B (11761932_at) / RFU CAPN14 (11732068_a_at) / Fold change /veh CAPN14 (11732068_a_at) / RFU TMCC2 (11721928_a_at) / Fold change /veh TMCC2 (11721928_a_at) / RFU IRGQ (11745062_a_at) / Fold change /veh IRGQ (11745062_a_at) / RFU FAM174B (11720279_a_at) / Fold change /veh FAM174B (11720279_a_at) / RFU TMPRSS4 (11748680_a_at) / Fold change /veh TMPRSS4 (11748680_a_at) / RFU FAM212B (11763350_a_at) / Fold change /veh FAM212B (11763350_a_at) / RFU PLEKHG5 (11743358_a_at) / Fold change /veh PLEKHG5 (11743358_a_at) / RFU ZSCAN30 (11745921_a_at) / Fold change /veh ZSCAN30 (11745921_a_at) / RFU CMKLR1 (11741424_a_at) / Fold change /veh CMKLR1 (11741424_a_at) / RFU LOC101060620 /// MAPK8IP1 (11723275_at) / Fold change /veh LOC101060620 /// MAPK8IP1 (11723275_at) / RFU SPTSSB (11747773_x_at) / Fold change /veh SPTSSB (11747773_x_at) / RFU PRSS12 (11739890_at) / Fold change /veh PRSS12 (11739890_at) / RFU BIN1 (11741810_x_at) / Fold change /veh BIN1 (11741810_x_at) / RFU WNT11 (11732464_a_at) / Fold change /veh WNT11 (11732464_a_at) / RFU C10orf10 (11716521_a_at) / Fold change /veh C10orf10 (11716521_a_at) / RFU C5orf56 (11738089_at) / Fold change /veh C5orf56 (11738089_at) / RFU CYB561 (11721691_x_at) / Fold change /veh CYB561 (11721691_x_at) / RFU ANKRD19P (11752326_a_at) / Fold change /veh ANKRD19P (11752326_a_at) / RFU OR2T12 /// OR2T33 /// OR2T8 (11738714_s_at) / Fold change /veh OR2T12 /// OR2T33 /// OR2T8 (11738714_s_at) / RFU VCAN (11748164_a_at) / Fold change /veh VCAN (11748164_a_at) / RFU JSRP1 (11732532_at) / Fold change /veh JSRP1 (11732532_at) / RFU KRTAP10-11 (11738290_x_at) / Fold change /veh KRTAP10-11 (11738290_x_at) / RFU MYO3A (11730013_a_at) / Fold change /veh MYO3A (11730013_a_at) / RFU EBF3 (11725865_a_at) / Fold change /veh EBF3 (11725865_a_at) / RFU CAMK2N1 (11719241_x_at) / Fold change /veh CAMK2N1 (11719241_x_at) / RFU C5orf56 (11738088_a_at) / Fold change /veh C5orf56 (11738088_a_at) / RFU OLFML3 (11715873_a_at) / Fold change /veh OLFML3 (11715873_a_at) / RFU LOC100653217 /// NTM (11731650_a_at) / Fold change /veh LOC100653217 /// NTM (11731650_a_at) / RFU MAPK11 (11762145_a_at) / Fold change /veh MAPK11 (11762145_a_at) / RFU FIZ1 (11724087_x_at) / Fold change /veh FIZ1 (11724087_x_at) / RFU OASL (11726364_x_at) / Fold change /veh OASL (11726364_x_at) / RFU SOX15 (11748057_x_at) / Fold change /veh SOX15 (11748057_x_at) / RFU CD79A (11719716_a_at) / Fold change /veh CD79A (11719716_a_at) / RFU HIST1H1D (11736915_at) / Fold change /veh HIST1H1D (11736915_at) / RFU CASKIN2 (11723855_a_at) / Fold change /veh CASKIN2 (11723855_a_at) / RFU LOC730098 (11760151_x_at) / Fold change /veh LOC730098 (11760151_x_at) / RFU OR4N2 (11742367_at) / Fold change /veh OR4N2 (11742367_at) / RFU PRRT2 (11749266_a_at) / Fold change /veh PRRT2 (11749266_a_at) / RFU SNX32 (11753110_a_at) / Fold change /veh SNX32 (11753110_a_at) / RFU CDHR5 (11726645_a_at) / Fold change /veh CDHR5 (11726645_a_at) / RFU RCAN1 (11760418_a_at) / Fold change /veh RCAN1 (11760418_a_at) / RFU FAM167A (11723789_a_at) / Fold change /veh FAM167A (11723789_a_at) / RFU FAM26E (11764081_at) / Fold change /veh FAM26E (11764081_at) / RFU ISYNA1 (11749810_s_at) / Fold change /veh ISYNA1 (11749810_s_at) / RFU ACY1 (11761880_at) / Fold change /veh ACY1 (11761880_at) / RFU 11764098_at / Fold change /veh 11764098_at / RFU SAMD14 (11745864_x_at) / Fold change /veh SAMD14 (11745864_x_at) / RFU NPB (11741838_a_at) / Fold change /veh NPB (11741838_a_at) / RFU TMPRSS6 (11731388_a_at) / Fold change /veh TMPRSS6 (11731388_a_at) / RFU KRTAP10-2 (11738614_at) / Fold change /veh KRTAP10-2 (11738614_at) / RFU ARHGAP8 /// PRR5-ARHGAP8 (11727945_x_at) / Fold change /veh ARHGAP8 /// PRR5-ARHGAP8 (11727945_x_at) / RFU KRTAP5-7 /// NADSYN1 (11734609_at) / Fold change /veh KRTAP5-7 /// NADSYN1 (11734609_at) / RFU RASL12 (11751679_a_at) / Fold change /veh RASL12 (11751679_a_at) / RFU CDKN2B (11736163_a_at) / Fold change /veh CDKN2B (11736163_a_at) / RFU PRF1 (11729649_at) / Fold change /veh PRF1 (11729649_at) / RFU, ZNF638 /// ZNF638-IT1 / Fold change vs veh, ZNF638 /// ZNF638-IT1 / RFU, PANK3 / Fold change vs veh, PANK3 / RFU, SH3YL1 / Fold change vs veh, SH3YL1 / RFU, ZEB2 / Fold change vs veh, ZEB2 / RFU, NRIP1 / Fold change vs veh, NRIP1 / RFU, PTTG1IP / Fold change vs veh, PTTG1IP / RFU, CAPN2 / Fold change vs veh, CAPN2 / RFU, MED14 / Fold change vs veh, MED14 / RFU, SNORA58 / Fold change vs veh, SNORA58 / RFU, C1orf63 / Fold change vs veh, C1orf63 / RFU, LRRFIP1 / Fold change vs veh, LRRFIP1 / RFU, NDUFAF7 / Fold change vs veh, NDUFAF7 / RFU, SLC12A2 / Fold change vs veh, SLC12A2 / RFU, IBTK / Fold change vs veh, IBTK / RFU, ESF1 / Fold change vs veh, ESF1 / Fold change vs veh, TMEM50B / RFU, TAOK1 / Fold change vs veh, TAOK1 / RFU, ACBD3 / Fold change vs veh, ACBD3 / RFU, TMA16 / Fold change vs veh, TMA16 / RFU, RWDD3 / Fold change vs veh, RWDD3 / RFU, BCAT1 / Fold change vs veh, BCAT1 / RFU, EDEM3 / Fold change vs veh, EDEM3 / RFU, TMEM33 / Fold change vs veh, TMEM33 / RFU, WDR75 / Fold change vs veh, WDR75 / RFU, AHCTF1 / Fold change vs veh, AHCTF1 / RFU, TFRC / Fold change vs veh, TFRC / RFU, ZDHHC17 / Fold change vs veh, ZDHHC17 / RFU, NOM1 / Fold change vs veh, NOM1 / RFU, ARL8B / Fold change vs veh, ARL8B / RFU, ZBTB11 / Fold change vs veh, ZBTB11 / RFU, TAMM41 / Fold change vs veh, TAMM41 / RFU, KIAA1704 /// LOC100996395 / Fold change vs veh, KIAA1704 /// LOC100996395 / RFU, ING1 / Fold change vs veh, ING1 / RFU, TRMT61B / Fold change vs veh, TRMT61B / RFU, FUBP3 / Fold change vs veh, FUBP3 / RFU, TP53 / Fold change vs veh, TP53 / RFU, TNKS2 / Fold change vs veh, TNKS2 / RFU, ZFP14 / Fold change vs veh, ZFP14 / RFU, ACTR2 / Fold change vs veh, ACTR2 / RFU, PPP3R1 / Fold change vs veh, PPP3R1 / RFU, PIK3R1 / Fold change vs veh, PIK3R1 / RFU, HNRNPA1 / Fold change vs veh, HNRNPA1 / RFU, RNF170 / Fold change vs veh, RNF170 / RFU, ZNF28 / Fold change vs veh, ZNF28 / RFU, RNGTT / Fold change vs veh, RNGTT / RFU, OGT / Fold change vs veh, OGT / RFU, BRD1 / Fold change vs veh, BRD1 / RFU, MARS / Fold change vs veh, MARS / RFU, ZNF655 / Fold change vs veh, ZNF655 / RFU, FAHD1 / Fold change vs veh, FAHD1 / RFU, BDP1 / Fold change vs veh, BDP1 / RFU, LRRCC1 / Fold change vs veh, LRRCC1 / RFU, ARID1A / Fold change vs veh, ARID1A / RFU, ZNF146 / Fold change vs veh, ZNF146 / RFU, ZNF330 / Fold change vs veh, ZNF330 / RFU, GPN3 / Fold change vs veh, GPN3 / RFU, C9orf123 / Fold change vs veh, C9orf123 / RFU, N4BP2L2 / Fold change vs veh, N4BP2L2 / RFU, ARFIP1 / Fold change vs veh, ARFIP1 / RFU, FAM179B / Fold change vs veh, FAM179B / RFU, BCL10 / Fold change vs veh, BCL10 / RFU, UHRF1BP1L / Fold change vs veh, UHRF1BP1L / RFU, BET1 / Fold change vs veh, BET1 / RFU, CNOT2 / Fold change vs veh, CNOT2 / RFU, ZNF268 / Fold change vs veh, ZNF268 / Fold change vs veh, ZNF507 / RFU, DGCR2 / Fold change vs veh, DGCR2 / RFU, WDSUB1 / Fold change vs veh, WDSUB1 / Fold change vs veh, HSP90B1 /// MIR3652 / RFU, ADSS / Fold change vs veh, ADSS / RFU, GK / Fold change vs veh, GK / RFU, ZNF148 / Fold change vs veh, ZNF148 / RFU, TAF9 / Fold change vs veh, TAF9 / RFU, SLC1A5 / Fold change vs veh, SLC1A5 / RFU, SLMO2 / Fold change vs veh, SLMO2 / RFU, ABCC4 / Fold change vs veh, ABCC4 / RFU, LOC101060439 /// RAP1B / Fold change vs veh, LOC101060439 /// RAP1B / RFU, RFX7 / Fold change vs veh, RFX7 / RFU, GTPBP10 / Fold change vs veh, GTPBP10 / RFU, CNEP1R1 / Fold change vs veh, CNEP1R1 / RFU, BIVM-ERCC5 /// ERCC5 / Fold change vs veh, BIVM-ERCC5 /// ERCC5 / RFU, ILF3 / Fold change vs veh, ILF3 / RFU 11762660_at / Fold change /veh 11762660_at / RFU VCAN (11757783_s_at) / Fold change /veh VCAN (11757783_s_at) / RFU DDX43 (11728927_at) / Fold change /veh DDX43 (11728927_at) / RFU KRT8 (11758188_x_at) / Fold change /veh KRT8 (11758188_x_at) / RFU NKD1 (11759106_at) / Fold change /veh NKD1 (11759106_at) / RFU SRD5A1 (11742802_a_at) / Fold change /veh SRD5A1 (11742802_a_at) / RFU TPSAB1 /// TPSB2 (11721975_s_at) / Fold change /veh TPSAB1 /// TPSB2 (11721975_s_at) / RFU GSTM3 (11746129_a_at) / Fold change /veh GSTM3 (11746129_a_at) / RFU IL23R (11737362_x_at) / Fold change /veh IL23R (11737362_x_at) / RFU TMEM51 (11727254_a_at) / Fold change /veh TMEM51 (11727254_a_at) / RFU PIWIL2 (11732686_x_at) / Fold change /veh PIWIL2 (11732686_x_at) / RFU ORM1 (11744905_x_at) / Fold change /veh ORM1 (11744905_x_at) / RFU CCDC152 (11743942_at) / Fold change /veh CCDC152 (11743942_at) / RFU ECM1 (11717891_a_at) / Fold change /veh ECM1 (11717891_a_at) / RFU IL23R (11748794_a_at) / Fold change /veh IL23R (11748794_a_at) / RFU TNFAIP8L3 (11732012_x_at) / Fold change /veh TNFAIP8L3 (11732012_x_at) / RFU MBOAT4 (11741988_at) / Fold change /veh MBOAT4 (11741988_at) / RFU 11764193_at / Fold change /veh 11764193_at / RFU TMEM53 (11763286_at) / Fold change /veh TMEM53 (11763286_at) / RFU MAGEB2 (11727129_at) / Fold change /veh MAGEB2 (11727129_at) / RFU TMEM200A (11744735_a_at) / Fold change /veh TMEM200A (11744735_a_at) / RFU CCDC152 (11751479_a_at) / Fold change /veh CCDC152 (11751479_a_at) / RFU FAM211A (11726209_a_at) / Fold change /veh FAM211A (11726209_a_at) / RFU RGS16 (11746705_a_at) / Fold change /veh RGS16 (11746705_a_at) / RFU VCAN (11755009_s_at) / Fold change /veh VCAN (11755009_s_at) / RFU RHOB (11743442_s_at) / Fold change /veh RHOB (11743442_s_at) / RFU RGS16 (11720943_a_at) / Fold change /veh RGS16 (11720943_a_at) / RFU RGS16 (11720944_at) / Fold change /veh RGS16 (11720944_at) / RFU, VPS4B / Fold change vs veh, VPS4B / RFU, CREB1 / Fold change vs veh, CREB1 / RFU, DNAJC13 / Fold change vs veh, DNAJC13 / RFU, GNAQ / Fold change vs veh, GNAQ / RFU, CDK5R1 / Fold change vs veh, CDK5R1 / RFU, ZRANB3 / Fold change vs veh, ZRANB3 / RFU, CUL4A / Fold change vs veh, CUL4A / RFU, CCNY / Fold change vs veh, CCNY / RFU, UFL1 / Fold change vs veh, UFL1 / RFU, COG3 / Fold change vs veh, COG3 / RFU, DIAPH2 / Fold change vs veh, DIAPH2 / RFU, SKA2 / Fold change vs veh, SKA2 / RFU, AFF3 / Fold change vs veh, AFF3 / RFU, LMF1 / Fold change vs veh, LMF1 / RFU, IPO11 / Fold change vs veh, IPO11 / RFU, DFFB / Fold change vs veh, DFFB / RFU, FOXP1 / Fold change vs veh, FOXP1 / RFU, CARD8 / Fold change vs veh, CARD8 / RFU, STRN3 / Fold change vs veh, STRN3 / RFU, ADK / Fold change vs veh, ADK / RFU, RASSF2 / Fold change vs veh, RASSF2 / RFU, WIPF1 / Fold change vs veh, WIPF1 / RFU, LARP1B / Fold change vs veh, LARP1B / RFU, RASA1 / Fold change vs veh, RASA1 / RFU, RB1 / Fold change vs veh, RB1 / RFU, PPFIA1 / Fold change vs veh, PPFIA1 / RFU, MAT2A / Fold change vs veh, MAT2A / RFU, CCT5 / Fold change vs veh, CCT5 / RFU, WDR92 / Fold change vs veh, WDR92 / RFU, CUX1 / Fold change vs veh, CUX1 / RFU, TTC7A / Fold change vs veh, TTC7A / RFU, TMEM135 / Fold change vs veh, TMEM135 / RFU, DEPTOR / Fold change vs veh, DEPTOR / RFU, CPM / Fold change vs veh, CPM / RFU, DNAJB6 / Fold change vs veh, DNAJB6 / RFU, CACNA2D3 / Fold change vs veh, CACNA2D3 / RFU, DTX4 / Fold change vs veh, DTX4 / RFU, TFCP2 / Fold change vs veh, TFCP2 / RFU, GMCL1 /// GMCL1P1 / Fold change vs veh, GMCL1 /// GMCL1P1 / RFU, AEBP2 / Fold change vs veh, AEBP2 / RFU, SNHG1 /// SNORD22 /// SNORD25 /// SNORD26 /// SNORD27 /// SNORD28 /// SNORD29 /// SNORD31 / Fold change vs veh, SNHG1 /// SNORD22 /// SNORD25 /// SNORD26 /// SNORD27 /// SNORD28 /// SNORD29 /// SNORD31 / Fold change (Aza/veh), C12orf56 (ProbeSet 11735607_a_at) / Fold change (ACY-1035/veh), C12orf56 (ProbeSet 11735607_a_at) / Fold change (Aza/veh), FGFR1OP (ProbeSet 11751329_s_at) / Fold change (ACY-1035/veh), FGFR1OP (ProbeSet 11751329_s_at) / Fold change (Aza/veh), VPS36 (ProbeSet 11739960_a_at) / Fold change (ACY-1035/veh), VPS36 (ProbeSet 11739960_a_at) / RFU SYPL1 (11715823_x_at) / Fold change /veh SYPL1 (11715823_x_at) / RFU IGFBP7 (11715501_s_at) / Fold change /veh IGFBP7 (11715501_s_at) / RFU REEP3 (11722064_at) / Fold change /veh REEP3 (11722064_at) / RFU IGLL1 (11728026_x_at) / Fold change /veh IGLL1 (11728026_x_at): dose or concentration left out as unconfirmed
Settings: MV-4-11 cells, 48 hours

Nc1ccc(-c2cccs2)cc1NC(=O)c1ccc2c(c1)cc(C1CC1)n2CCN1CCOCC1 [ACY-1035]
RFU RGS16 (11746705_a_at): 52.79 RFU
